From patent US6235516A, “Biocatalysts with amine acylase activity” (Novartis AG, priority 1996, dated 2001)
Values joined by “and” are separate entries in the source; they are usually repeats but may differ in a detail not shown here. Equal entries are not always repeated.

Key:
K1/1 acylase = experiment: Hydrolysis of racemic 2-acetylamino-1-phenyl-4-pentene with the purified K1/1 acylase; format: biochemical, Rhodococcus globerulus K1/1
Method: To 50 ml of a 10 mM solution of racemic 2-acetylamino-1-phenyl-4-pentene in phosphate buffer (pH 7.0) 7 ml of the K1/1 acylase are added (0.456 U), which has been purified by HIC and concentrated by ultrafiltration (example 26.5 and 26.6). The deacylation is performed at 30° C. under continuous shaking at 200 rpm. The reaction is monitored by HPLC (see example 1), and after the conversion is about 50% the solution is acidified to pH 2 with 1 N HCl and extracted three times with one volume of dichloromethane to obtain the unconverted amides. The aqueous phase is neutralized with 1 N NaOH and extracted again three times with dichloromethane to recover the formed amines. Both organic phases are dried with MgSO4, filtered and the solvent is distilled off. The amides are used directly for optical purity determinations via HPLC under the following conditions: Chiralcel OJ column, hexane/isopropanol 9:1 as the eluent, flow rate 1 ml/min., detection at 208 nm. The obtained amines are converted to the acetamides by adding […] to each sample before being also analyzed for the optical purity by HPLC.

[1] = system: acylase from Arthrobacter aurescens Ac5R; experiment: Enzymatic hydrolysis of racemic amides with highly purified acylase from Arthrobacter aurescens Ac5R; format: biochemical; conditions: for Selectivity E: enantioselectivity of the hydrolysis; for e.e. (R)-Amine: formed amine, analysed as acetamide by chiral HPLC; for e.e. (S)-Amide: unconverted amide, chiral HPLC
Method: (§1) To 10 ml of a 20 mM solution of each of the racemic amides shown below 1 in 0.1 M phosphate buffer pH 7.0, 5 ml (1.3 units) of the enzyme is added and the solutions are shaken at 100 rpm and 30° C. [drawing 10] [drawing 11]
(§2) When the conversion reaches about 50% (checked by HPLC) the solutions are acidified to pH 2 by adding 1 N HCl and extracted three times with dichloromethane to obtain the unconverted amides. The aqueous layers are neutralized with 1 N NaOH solution and extracted again three times with dichloromethane to recover the formed amines. Both organic phases are dried with MgSO4, filtered and the solvent is distilled off. The amides are used directly for optical purity determinations (HPLC), whereas the obtained amines are converted to the acetamides by adding 100 μl triethylamine and 100 μl acetic anhydride to each sample and then analyzed for the optical purity by "chiral" HPLC.

[2] = biological target: T1, acylase from Rhodococcus equi Ac6 (Rhodococcus (subgen. Prescottella) equi, UniProt A0A3S5Y3Z2); experiment: Enzymatic hydrolysis of racemic amides with partially purified acylase from Rhodococcus equi Ac6; format: biochemical; design: e.e. (R)-Amide: unit not given here; conditions: for Selectivity E: enantioselectivity of the hydrolysis; for e.e. (S)-Amine: formed amine, analysed as acetamide; for e.e. (R)-Amide: unconverted amide, chiral HPLC
T1 construct: N-terminus […]
Method: as §1, §2
The experiments are carried out in the same manner as described in example 22.

[3] = system: whole cells of Rhodococcus globerulus K1/1; experiment: Amide hydrolysis with whole cells of Rhodococcus globerulus K1/1; format: cell-based; conditions: for Selectivity E: enantioselectivity of the hydrolysis; for e.e. (S)-Amine: formed amine, analysed as acetamide; for e.e. (R)-Amide: unconverted amide, chiral HPLC
From the text: as §2
To 50 ml of a 10 mM solution in phosphate buffer pH 7.0 of each racemic amide listed in table 16, whole cells of Rhodococcus globerulus K1/1 (each obtained from 50 ml shake flask medium (see example 21), OD660 =2.0) is added. The deacetylation is performed at 30° C. under continuous shaking (200 rpm). The reaction is monitored by HPLC and after the conversion is about 50% the reaction mixtures are worked up in the same manner as described in example 22.

Strain K1/1 = experiment: Growth and induction of the acylase of Rhodococcus globerulus K1/1, variation of the inducer; format: cell-based; conditions: for induction of acylase formation by strain K1/1: racemic inducer, 0-9.84 mM
Method: Strain K1/1 is grown in shake flask culture using the medium from example 21, but with 2 g/l of each yeast extract and peptone, with racemic 2-acetylamino-1-phenyl-4-pentene or alternatively racemic N-acetyl-1-phenylethylamine as the inducer in concentrations of 0, 4.92, 7.38, and 9.84 mM.

AcR5b-acylase = experiment: Dependence of the reaction velocity of the AcR5b-acylase on substrate concentration (Km, Vmax); format: biochemical, Arthrobacter aurescens AcR5b
Method: Activity assays are performed under the standard conditions given in example 11 with an incubation time of 30 min. using different initial concentrations of (R)-N-acetyl-1-phenylethylamine and racemic N-acetyl-(m-cyano-phenyl)ethylamine. The final AcR5b-acylase preparation obtained in example 4d, which has been diluted 20 fold with 69 mM potassium phosphate buffer, pH 7, serve as the enzyme source. The Michaelis constants (Km) and the maximum reaction velocities are calculated as described in example 9.

R. equi Ac6 = experiment: Growth and induction of the acylase of Rhodococcus equi Ac6 (shake flask culture); format: cell-based; conditions: for induction of the acylase expression of strain Ac6: 3 g/l in basic medium; for Enzyme yield with (R)-amide as the acylase substrate / Enzyme yield with (S)-amide as the acylase substrate: basic medium + 3 g/l of the amide as inducer; for Enzyme yield with (R)-amide as the acylase substrate / Enzyme yield with (S)-amide as the acylase substrate / OD660 at cell harvest: 91 h; for OD660 at cell harvest: basic medium + 3 g/l of the amide, basic medium alone 0.46; for effect on growth of Rhodococcus equi Ac6: in the growth medium
Method: R. equi Ac6 is grown in basic medium containing 3 g/l (S)-N-acetyl-1-phenylethylamine or 3 g/l (R)-N-acetyl-1-phenylethylamine or no N-acetyl-1-phenylethylamine for 91 h by the shake flask culture technique described in example 1. By applying the methods given in example 1 the crude extracts are prepared and subjected to measurement of the protein concentration and the acylase activity using (S)-N-acetyl-1-phenylethylamine and (R)-N-acetyl-1-phenylethylamine as the substrates.
R. equi Ac6 cells are inoculated into three 1 l Erlenmeyer flask containing each 100 ml of basic medium with 10 g/l yeast extract and 10 g/l meat extract as additional nutrients. The cells are grown (shake flask technique see example 1) until the OD660 reaches about 2. Then the culture is split into eight portions of 25 ml and (S)-N-acetyl-1-phenylethylamine is added to the shake flasks in final concentrations of 0-7 g/l in steps of 1 g/l. The cells are further incubated for 25 h. Then the protein concentrations and acylase activities of the crude extracts are measured as described in example 1.
In another experiment (S)-N-acetyl-1-phenylethylamine is added to the culture medium in final concentrations of 1 to 5 g/l in steps of 1 g/l directly after inoculation to one series of shake flasks (see example 1) and after 72 h of growth to another. Basic medium without peptone supplemented with 20 g/l meat extract and 20 g/l yeast extract is used. 96 h after inoculation the cells are harvested by centrifugation and the protein concentration and acylase activity in the crude extract are measured (see example 1).

[4] = system: whole cells of Rhodococcus globerulus K1/1; experiment: Hydrolysis of racemic 2-acetylamino-1(4-chlorophenyl)-4-pentene with whole cells of Rhodococcus globerulus K1/1; format: cell-based; conditions: 80 g racemic amide in 20 l, 21 h at 28° C.
Method: Strain K1/1 is grown according to example 3 in a 30 l fermenter filled with 20 l of basic medium containing 1 g/l of racemic N-acetyl-1-phenylethylamine. The cells are harvested by continuous centrifugation and resuspended in the reaction mixture, which is prepared by adding a solution of 80 g racemic 2-acetylamino-1(4-chlorophenyl)-4-pentene in 500 ml methanol to 20 l of potassium phosphate buffer, 69 mM, pH 7. After stirring for 21 h at 28° C. and 500 rpm the amine formed and the unreacted amide are separated and analyzed for their optical purity analogously to the procedure given in example 30.

T1 sequence (A0A3S5Y3Z2 1-487): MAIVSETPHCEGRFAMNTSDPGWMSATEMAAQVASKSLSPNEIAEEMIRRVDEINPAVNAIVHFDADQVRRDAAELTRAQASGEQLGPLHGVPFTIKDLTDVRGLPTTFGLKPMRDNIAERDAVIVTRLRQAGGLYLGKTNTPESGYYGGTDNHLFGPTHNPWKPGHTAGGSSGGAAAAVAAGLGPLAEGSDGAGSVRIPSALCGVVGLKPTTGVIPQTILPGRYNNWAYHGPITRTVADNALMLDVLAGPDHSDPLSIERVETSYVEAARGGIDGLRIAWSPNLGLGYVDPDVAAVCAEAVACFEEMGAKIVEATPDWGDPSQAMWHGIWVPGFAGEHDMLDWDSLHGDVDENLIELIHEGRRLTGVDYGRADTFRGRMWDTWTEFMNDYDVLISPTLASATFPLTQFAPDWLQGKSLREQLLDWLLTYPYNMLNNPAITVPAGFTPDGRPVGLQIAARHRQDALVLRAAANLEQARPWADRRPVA

Q: With `C=CC[C@H](Cc1ccccc1)NC(C)=O` [(R)-N-2-acetylamino-1-phenyl-4-pentene] as the compound, how does the “ee of the unconverted amide” value (K1/1 acylase; at 50.3% conversion) read?
A: 98.8 % ee

Q: Which “Selectivity E” value [1] does the source give for `CC(=O)NC(C)c1ccccc1` (racemic) [Substrate 1a, N-acetyl 1-phenylethylamine] here?
A: > 500

Q: What about the “e.e. (R)-Amine” value [1] of the same compound?
A: 98.2

Q: What about the “e.e. (S)-Amide” value [1] of the same compound?
A: > 99.9

Q: And the “Selectivity E” value [2]?
A: 350

Q: And the “e.e. (S)-Amine” value [2]?
A: 96.8

Q: What about the “e.e. (R)-Amide” value [2] of the same compound?
A: 99.3

Q: And the “Selectivity E” value [3]?
A: > 500

Q: What about the “e.e. (S)-Amine” value [3] of the same compound?
A: 97.5

Q: What about the “e.e. (R)-Amide” value [3] of the same compound?
A: > 99.9

Q: And the “effect on growth of strain K1/1” value (Strain K1/1; 7.38 and 9.84 mM)?
A: do not inhibit the growth

Q: What about the “induction of acylase formation by strain K1/1” value (Strain K1/1) of the same compound?
A: inducing substance

Q: Which results are given for `CCC(NC(C)=O)c1ccccc1` (racemic) [Substrate 4a]?
A: Selectivity E [1]: > 500; e.e. (R)-Amine [1]: > 99.9; e.e. (S)-Amide [1]: 87.4; Selectivity E [2]: > 500; e.e. (S)-Amine [2]: 98.5; e.e. (R)-Amide [2]: > 99.9; Selectivity E [3]: 140; e.e. (S)-Amine [3]: 90.0; e.e. (R)-Amide [3]: > 99.9

Q: `C=CCC(Cc1ccccc1)NC(C)=O` (racemic) [2-acetylamino-1-phenyl-4-pentene] was tested. Which “induction of acylase formation by strain K1/1” value (Strain K1/1) did it give?
A: inducing substance

Q: What about the conversion (K1/1 acylase; 10 mM racemic substrate, 0.456 U K1/1 acylase, pH 7.0, 30° C.) of the same compound?
A: 50.3%

Q: And the E-value (K1/1 acylase; at 50.3% conversion)?
A: 74.9

Q: `CC(=O)N[C@H](C)c1ccccc1` [(R)-N-acetyl-1-phenylethylamine] was tested. Which Km (AcR5b-acylase; 30 min incubation, pH 7) did it give?
A: 5.7 mM

Q: What about the “relative maximum reaction velocity” value (AcR5b-acylase; (R)-N-acetyl-1-phenylethylamine = 100) of the same compound?
A: 100%

Q: And the “induction of the acylase expression of strain Ac6” value (R. equi Ac6)?
A: not effective as an inducer

Q: What about the “Enzyme yield with (R)-amide as the acylase substrate” value (R. equi Ac6) of the same compound?
A: 0 U/lculture broth

Q: And the “Enzyme yield with (S)-amide as the acylase substrate” value (R. equi Ac6)?
A: 0 U/lculture broth

Q: And the “OD660 at cell harvest” value (R. equi Ac6)?
A: 0.19

Q: What about the “effect on growth of Rhodococcus equi Ac6” value (R. equi Ac6) of the same compound?
A: inhibits the growth of the bacterium

Q: How did the “ee of the formed amine” value (K1/1 acylase; at 50.3% conversion) turn out when `C=CC[C@H](N)Cc1ccccc1` [(S)-2-amino-1-phenyl-4-pentene] was run?
A: 87.4 % ee

Q: `CC(=O)N[C@@H](C)c1ccccc1` [(S)-N-acetyl-1-phenylethylamine] was tested. Which maximal acylase production (R. equi Ac6; 2 g/l inducer added 72 h after inoculation, harvest 96 h) did it give?
A: 20 U/lculture medium

Q: And the “induction of the acylase expression of strain Ac6” value (R. equi Ac6)?
A: has to be present in the growth medium to induce the acylase expression

Q: And the maximal acylase yield (R. equi Ac6; 3 g/l inducer added directly after inoculation, harvest 96 h)?
A: 60 U/lculture medium

Q: And the “Enzyme yield with (R)-amide as the acylase substrate” value (R. equi Ac6)?
A: < 0.4 U/lculture broth

Q: What about the “Enzyme yield with (S)-amide as the acylase substrate” value (R. equi Ac6) of the same compound?
A: 38.2 U/lculture broth

Q: What about the “OD660 at cell harvest” value (R. equi Ac6) of the same compound?
A: 1.52

Q: What about the “effect on growth of Rhodococcus equi Ac6” value (R. equi Ac6) of the same compound?
A: inhibits the growth of the cells

Q: With `C=CC[C@H](Cc1ccc(Cl)cc1)NC(C)=O` [(R)-2-acetylamino-1(4-chlorophenyl)-4-pentene] as the compound, how does the “ee of the unreacted amide” value [4] read?
A: 98.5 % ee

Q: What does the source list for `CCC(Cc1ccccc1)NC(C)=O` (racemic) [Substrate 12a]?
A: Selectivity E [3]: 87; e.e. (S)-Amine [3]: 93.0 and 87.9; e.e. (R)-Amide [3]: 90.7 and > 99.9
